Active and inactive are the calls of the source. No cut-off for these calls is given here.
What was measured:
[1] = target: T1, DNA topoisomerase 1 (Homo sapiens) (UniProt P11387); assay: Poison activity at topoisomerase 1 (unknown origin) assessed as stabilization of enzyme-DNA cleavage complex by measuring increase in nicked DNA formation at 1 mM using pBR322 DNA as substrate after 30 mins by agarose gel electrophoresis
T1 sequence (whole entry): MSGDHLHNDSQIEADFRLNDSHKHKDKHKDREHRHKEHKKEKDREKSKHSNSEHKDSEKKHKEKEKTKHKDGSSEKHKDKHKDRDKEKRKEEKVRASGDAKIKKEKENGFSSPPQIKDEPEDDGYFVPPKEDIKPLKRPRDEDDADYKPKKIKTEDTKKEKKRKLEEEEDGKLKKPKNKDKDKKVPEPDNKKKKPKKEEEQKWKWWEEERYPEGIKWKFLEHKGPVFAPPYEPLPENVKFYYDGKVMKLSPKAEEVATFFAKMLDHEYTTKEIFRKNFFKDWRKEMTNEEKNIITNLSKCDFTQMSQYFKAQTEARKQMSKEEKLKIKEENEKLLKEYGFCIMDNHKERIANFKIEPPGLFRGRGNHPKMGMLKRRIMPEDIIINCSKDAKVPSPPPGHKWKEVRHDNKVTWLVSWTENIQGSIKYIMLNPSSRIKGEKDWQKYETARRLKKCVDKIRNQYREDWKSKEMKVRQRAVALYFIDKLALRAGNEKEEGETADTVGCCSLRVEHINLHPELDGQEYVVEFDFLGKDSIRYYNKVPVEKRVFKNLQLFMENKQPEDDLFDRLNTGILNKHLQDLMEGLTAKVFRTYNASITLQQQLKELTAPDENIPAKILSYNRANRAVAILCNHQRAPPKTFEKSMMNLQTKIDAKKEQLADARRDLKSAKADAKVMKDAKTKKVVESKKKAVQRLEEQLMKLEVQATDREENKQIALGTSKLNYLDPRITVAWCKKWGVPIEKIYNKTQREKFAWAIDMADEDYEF

[2] = target: T1, DNA topoisomerase 1 (Homo sapiens); assay: Inhibition of topoisomerase 1 (unknown origin) assessed as reduction in relaxation of supercoiled DNA at 1 mM using pBR322 plasmid DNA as substrate measured after 30 mins by gel electrophoresis relative to control
[3] = target: T1, DNA topoisomerase 1 (Homo sapiens); assay: Inhibition of topoisomerase 1 (unknown origin) assessed as DNA intercalation at 1 mM using pBR322 DNA as substrate measured after 30 mins by gel electrophoresis relative to control

O=C1CCC[C@H]2[C@@H]3CCCN[C@H]3[C@H](CCCN3C[C@H]4C[C@H](C3)c3cccc(=O)n3C4)CN12
Activity [1]: Active
inhibition [2]: 82.3%

O=C1CCC[C@H]2[C@H]3CCCN[C@@H]3[C@@H](CCCN3C[C@H]4C[C@H](C3)c3cccc(=O)n3C4)CN12
Activity [1]: Active
inhibition [2]: 58.6%

CC[n+]1c(-c2ccccc2)c2cc(N)ccc2c2ccc(N)cc21
inhibition [3]: Active

Reference: ChEMBL document CHEMBL5143657, “Discovery, Topo I inhibitory activity and mechanism evaluation of two novel cytisine-type alkaloid dimers from the seeds of Sophora alopecuroides L” (Bioorg Med Chem, 2022)
